Laboratory results reported in patent publication US20160295854A1, “COMPOSITION AND METHOD FOR EX-VIVO IMMUNOMODULATION AND/OR PRESERVATION OF ORGANS, METHODS AND USE” (UNIAO BRASILEIRA DE EDUCACAO E ASSISTENCIA , MANTENEDORA DA …, priority 2014, published 2016).

How the values were obtained:
[1] = system: cutaneous allograft (B6 donor skin in BALB/c recipients); experiment: Murine model of cutaneous allograft, graft immersion-treatment; format: in vivo, mice (Mus musculus)
Description: A method for treating grafts, including allografts, was developed by the inventors of the present invention. Thus, the method treats the grafts (that may be full organs) instead of recipient that will receive the graft, using as tool a classic murine model of skin transplantation and well established. Such method, to the light of the inventors, may be considered as new and inventive. The said model consists of a complete incompatibility of MHC molecules and was described by BILLINGHAM & MEDAWAR (1951).
BALB/c recipients, which express the MHC II I-A^d molecule, are anaesthetized and the dorsal stem hairs are removed. In the waxed area, 1 cm^2 of the skin was removed in each recipient mouse and the donor tail skin was sutured in the exposed area. The animals are maintained in individual cages and daily monitored. The graft rejection is confirmed by observing the cyanosis, erythema, erosion and cutaneous graft loss.
This model consists of a complete incompatibility of MHC molecules and was described by BILLINGHAM & MEDAWAR (1951). In this model, the donor mouse B6, which expresses the MHC II I-A^b molecule, is sacrificed. […] After this period, the grafts were sutured in the BALB/c recipients' back, who express the MHC II I-A^d molecule, and the rejection clinical progression is daily monitored.
After that, the grafts were sutured in the BALB/c (I-Ad) animals' back. The animals were daily monitored. ***, p<0.0001. n=22-24 mice per group. The results achieved putting the seven independent experiments together.
After this, these grafts were sutured in BALB/c recipients WT and their rejection were daily monitored.
After this, the grafts were sutured in the BALB/c (I-Ad) animals' back. The animals were daily monitored. *, p<0.05. n=4 mice per group.

[2] = system: donor cells (I-A^b+ or GFP+) in recipient DLN; experiment: Donor migratory cells screened in the recipient DLN by flow cytometry; format: in vivo, mice (Mus musculus)
[3] = system: STAT3; experiment: p-STAT3 intracellular marking in BMDCs; format: cell-based, mice (Mus musculus); conditions: 30 μg/ml, 45 minutes after the stimulus
Procedure: As positive control, the cells were stimulated with […] of phorbol myristate acetate (PMA) for 30 minutes. After the stimuli in the periods mentioned, the cells were fixed with Cytofix Buffer (BD Biosciences) for 10 minutes at 37° C. and permeated with Phosflow Perm Buffer III (BD Biosciences) for 30 minutes on ice. After such procedures, the cells were marked for p-ERK1/2 and p-STAT3.
For analyzing the recipients T cells, the cells were marked for CD4 (GK1.5), CD8a (53-6.7), Foxp3 (MF23), Ki67 (B56) achieved from BD Biosciences. […] The levels of phosphorylated ERK and STAT3 were determined using antibodies for p-ERK1/2 and p-STAT3 (BD Biosciences) in BMDCs previously fixed and permeablized. The cells were subsequently analyzed in the flow cytometer FACSCanto II (BD Biosciences) with the BD FACSDiva (BD Biosciences) program. The data achieved were analyzed with the Flowjo program (version 7.6.5, Tree Star).
The p-ERK expression was measured by flow cytometry. […] The p-STAT3 expression was measured by flow cytometry. […] After that, the IL-10 mRNA levels were measured by Real-time PCR and the concentration of this cytokine by flow cytometry, using the kit CBA Mouse Inflammation. […] After that, the MARCH-I mRNA levels were analyzed by Real-time PCR. […]

[4] = system: recipient DCs; experiment: Indirect alloantigen presentation by recipient DCs (Y-Ae antibody); format: in vivo, mice (Mus musculus); conditions: BALB/c grafts in B6 recipients; vs OVA
Procedure: Subsequently, the alloantigens presentation was analyzed by the recipient DCs using the antibody Y-Ae. This antibody recognizes a peptide (Eα52-68) expressed in BALB/c animals bound in the MHC II I-A^b molecule (expressed in the B6 animals).

Hsp70: recombinant Mycobacterium tuberculosis Hsp70 (DnaK) produced in Escherichia coli BL21, LPS removed
graft acceptance after immersion with Hsp70 or peptides (FIG. 17) ([1]; 60 μg/ml Hsp70 or 15 μg/ml peptide, 60 minutes at 4° C., compared to OVA peptide and peptide 5): inhibited the acute rejection
graft survival compared with grafts treated with OVA (FIG. 1) ([1]; 60 μg/ml, 60 minutes at 4° C.): greater survival
graft protection with grafts from donors IL-10 KO (FIG. 11 E) ([1]; IL-10 KO grafts, 60 μg/ml, 60 minutes): cancelled the protection
Survival average ([1]; graft immersed in 60 μg/mL for 60 minutes, seven independent experiments): 20.0 days
lengthening of graft survival with TLR2 KO grafts (FIG. 12 D) ([1]; mouse, in vivo): dependent on the TLR2 expression in the graft
survival of WT grafts in WT or TLR2 KO recipients (FIG. 12 E) ([1]; mouse, in vivo): very similar survival
MHC II levels in DCs CD103+ migrating from the graft to the recipient DLN (FIG. 9 B) ([2]; 24 h or 96 h after transplantation): significant reduction of MHC II levels
CD80 and CD86 levels of donor DCs (FIG. 6 C) ([2]; 24 h or 96 h after transplantation, vs OVA): reduced levels of CD80 and CD86
CCR7 expression in migratory donor DCs ([2]; 24 hours after transplantation, vs OVA): upper levels of CCR7
CCR7 expression in migratory donor DCs ([2]; four days after transplantation, vs OVA): did not differ
MHC II expression in donors DCs in recipient DLN (FIG. 6 A, B) ([2]; graft treated by immersion, vs OVA): MHC II expression reduction
donor cells (I-A^b+ or GFP+) in the recipient DLN ([2]; one and four days after transplantation, vs OVA): not noted any difference
STAT3 phosphorylation in BMDCs (FIG. 13 C) [3]: induced the phosphorylation STAT3
antigens presentation levels by recipient DCs, Y-Ae (FIG. 6 D) [4]: no difference
